Reference: patent publication US8722849B2, “Polypeptides” (Novo Nordisk A/S, priority 2011, dated 2014)
Starred links: 1 amine or outer side, 2 acyl side, 3 side chain; linkers in the order of their positions; H or OH if unused. Positions of bridges follow the written chain, without caps; N, C: chain ends. Residues, ends and D or L forms follow the SMILES beside them. *: point of attachment. C18 diacid = O=C(O)CCCCCCCCCCCCCCCCC(=O)*; γGlu = O=C(O)[C@H](CCC(=O)[*:2])N[*:1]

Legend:
[1] = Assay (IX) pK, determination of T½ in mini-pig; format: in vivo, Göttingen mini-pigs; conditions: male, Göttingen, iv, 2 nmol/kg; minipig; plasma terminal half-life
[2] = tested on: food intake; experiment: Assay (I) efficacy testing on appetite (food intake), ad libitum fed rat model; format: in vivo, Sprague Dawley (SD) rats; conditions: 3 nmol/kg
How it was run: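 Sprague Dawley rats (200–250 g), single-housed under reversed light cycle with free food and water, got one ip, po or sc dose of 0.01–3 mg/kg just before lights-off. Individual food intake recorded hourly for 7 h, then at 24 h and sometimes 48 h; groups of 5–8, Grubbs outliers excluded.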

[3] = Assay (III) ThT fibrillation assay for physical stability; format: physicochemical
How it was run: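 Freshly prepared formulations, pH-adjusted, with 1 μM ThT; four or eight replicates incubated at 37 °C under 960 rpm orbital shaking. Fluorescence (ex 444/em 485 nm) read every 20 min; […]. Peptide concentration measured by RP-HPLC before and after the run.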

half-life [1]: 59 h | ThT pH 4.0 lag time ([3]; Table 8): >45 h | ThT pH 4.0 lag time ([3]; Table 9): >45 h | ThT pH 4.0 lag time ([3]; ThT fibrillation assay): >45 h | ThT pH 4.0 lag time (h) ([3]; ThT fibrillation assay): >45 h
Compound: CC[C@H](C)[C@H](NC(=O)[C@@H]1CCCN1C(=O)CNC(=O)[C@H](Cc1ccccc1)NC(=O)[C@H](CC(N)=O)NC(=O)[C@H](CC(N)=O)NC(=O)[C@H](CO)NC(=O)[C@H](CO)NC(=O)[C@H](Cc1c[nH]cn1)NC(=O)[C@H](Cc1c[nH]cn1)NC(=O)[C@H](CC(C)C)NC(=O)[C@H](Cc1ccccc1)NC(=O)[C@H](CCC(=O)O)NC(=O)[C@H](C)NC(=O)[C@H](CC(C)C)NC(=O)[C@H](CCCNC(=N)N)NC(=O)[C@H](CCC(N)=O)NC(=O)[C@@H](NC(=O)[C@H](C)NC(=O)[C@@H]1CSSC[C@H](NC(=O)[C@H](CCCCN)NC(=O)CC[C@H](NC(=O)CCCCCCCCCCCCCCCCC(=O)O)C(=O)O)C(=O)N[C@@H](CC(N)=O)C(=O)N[C@@H]([C@@H](C)O)C(=O)N[C@@H](C)C(=O)N[C@@H]([C@@H](C)O)C(=O)N1)[C@@H](C)O)C(=O)N[C@@H](CC(C)C)C(=O)N1CCC[C@H]1C(=O)N1CCC[C@H]1C(=O)N[C@H](C(=O)N[C@@H](CC(N)=O)C(=O)N[C@H](C(=O)NCC(=O)N[C@@H](CO)C(=O)N[C@@H](Cc1c[nH]cn1)C(=O)N[C@H](C(=O)N[C@@H](Cc1ccc(O)cc1)C(N)=O)[C@@H](C)O)C(C)C)[C@@H](C)O [Example 59, N-alpha-[(S)-4-Carboxy-4-(17-carboxyheptadecanoylamino)butyryl]-[Glu14,His17,His35]-pramlintide] ({C18 diacid-γGlu}-KCNTATCATQRLAEFLHHSSNNFGPILPPTNVGSHTY-NH2; disulfide 2-7 (inferred))
Food intake reduction 0-24 h 3 nmol/kg (%) ([2]; 0-24 h): 59% | Food intake reduction 24-48 h 3 nmol/kg (%) ([2]; 24-48 h): 27%
